Measurements as given in ChEMBL document CHEMBL3046191, “Strong resistance to phosphine in the rusty grain beetle, Cryptolestes ferrugineus (Stephens) (Coleoptera: Laemophloeidae): its characterisation, a rapid assay for diagnosis and its distribution in Australia” (2013).
≈ marks a conversion by molar mass, not a printed value.

Tests used:
Cryptolestes ferrugineus [1] = assay: whole plant or invertebrate; conditions: QNCF104, 144 h
Description: Insecticidal activity against strongly phosphine-resistant Cryptolestes ferrugineus (rusty grain beetle) QNCF104 after 144 hr by FAO method

Cryptolestes ferrugineus [2] = assay: whole plant or invertebrate; conditions: Lab-StR, 144 h
Description: Insecticidal activity against phosphine-resistant Cryptolestes ferrugineus (rusty grain beetle) Lab-StR after 144 hr by FAO method

Cryptolestes ferrugineus [3] = assay: Insecticidal activity against phosphine-weakly resistant Cryptolestes ferrugineus (rusty grain beetle) Lab-WR after 72 hr by FAO method
Cryptolestes ferrugineus [4] = assay: whole plant or invertebrate; conditions: Lab-WR, 144 h
Description: Insecticidal activity against phosphine-weakly resistant Cryptolestes ferrugineus (rusty grain beetle) Lab-WR after 144 hr by FAO method

Cryptolestes ferrugineus [5] = assay: whole plant or invertebrate; conditions: QQCF691, 144 h
Description: Insecticidal activity against strongly phosphine-resistant Cryptolestes ferrugineus (rusty grain beetle) QQCF691 after 144 hr by FAO method

Cryptolestes ferrugineus [6] = assay: Insecticidal activity against phosphine-resistant Cryptolestes ferrugineus (rusty grain beetle) Lab-StR after 48 hr by FAO method
Cryptolestes ferrugineus [7] = assay: whole plant or invertebrate; conditions: QNCF122, 144 h
Description: Insecticidal activity against strongly phosphine-resistant Cryptolestes ferrugineus (rusty grain beetle) QNCF122 after 144 hr by FAO method

Cryptolestes ferrugineus [8] = assay: whole plant or invertebrate; conditions: QNCF134, 144 h
Description: Insecticidal activity against strongly phosphine-resistant Cryptolestes ferrugineus (rusty grain beetle) QNCF134 after 144 hr by FAO method

Cryptolestes ferrugineus [9] = assay: whole plant or invertebrate; conditions: QNCF101, 144 h
Description: Insecticidal activity against strongly phosphine-resistant Cryptolestes ferrugineus (rusty grain beetle) QNCF101 after 144 hr by FAO method

Cryptolestes ferrugineus [10] = assay: whole plant or invertebrate; conditions: Lab-S, 144 h
Description: Insecticidal activity against Cryptolestes ferrugineus (rusty grain beetle) Lab-S after 144 hr by FAO method

Cryptolestes ferrugineus [11] = assay: whole plant or invertebrate; conditions: QNCF130, 144 h
Description: Insecticidal activity against strongly phosphine-resistant Cryptolestes ferrugineus (rusty grain beetle) QNCF130 after 144 hr by FAO method

Cryptolestes ferrugineus [12] = assay: Insecticidal activity against Cryptolestes ferrugineus (rusty grain beetle) Lab-S after 72 hr by FAO method
Cryptolestes ferrugineus [13] = assay: Insecticidal activity against phosphine-weakly resistant Cryptolestes ferrugineus (rusty grain beetle) Lab-WR after 48 hr by FAO method
Cryptolestes ferrugineus [14] = assay: whole plant or invertebrate; conditions: QNCF102, 144 h
Description: Insecticidal activity against strongly phosphine-resistant Cryptolestes ferrugineus (rusty grain beetle) QNCF102 after 144 hr by FAO method

Cryptolestes ferrugineus [15] = assay: whole plant or invertebrate; conditions: QNCF129, 144 h
Description: Insecticidal activity against strongly phosphine-resistant Cryptolestes ferrugineus (rusty grain beetle) QNCF129 after 144 hr by FAO method

Cryptolestes ferrugineus [16] = assay: Insecticidal activity against Cryptolestes ferrugineus (rusty grain beetle) Lab-S after 48 hr by FAO method
Cryptolestes ferrugineus [17] = assay: whole plant or invertebrate; conditions: QNCF110, 144 h
Description: Insecticidal activity against strongly phosphine-resistant Cryptolestes ferrugineus (rusty grain beetle) QNCF110 after 144 hr by FAO method

Cryptolestes ferrugineus [18] = assay: whole plant or invertebrate; conditions: QNCF83, 144 h
Description: Insecticidal activity against strongly phosphine-resistant Cryptolestes ferrugineus (rusty grain beetle) QNCF83 after 144 hr by FAO method

Cryptolestes ferrugineus [19] = assay: Insecticidal activity against phosphine-resistant Cryptolestes ferrugineus (rusty grain beetle) Lab-StR after 72 hr by FAO method

Compound: P [PHOSPHINE]
- LC50 (Cryptolestes ferrugineus [1]): 1.21 µg/mL (≈ 35.6 µM)
- LC50 (Cryptolestes ferrugineus [2]): 1.66 µg/mL (≈ 48.8 µM)
- LC50 (Cryptolestes ferrugineus [3]): 0.037 µg/mL (≈ 1.09 µM)
- LC50 (Cryptolestes ferrugineus [4]): 0.022 µg/mL (≈ 0.647 µM)
- LC50 (Cryptolestes ferrugineus [5]): 1.34 µg/mL (≈ 39.4 µM)
- LC50 (Cryptolestes ferrugineus [6]): 6.57 µg/mL (≈ 193 µM)
- LC50 (Cryptolestes ferrugineus [7]): 1.77 µg/mL (≈ 52.1 µM)
- LC50 (Cryptolestes ferrugineus [8]): 1.22 µg/mL (≈ 35.9 µM)
- LC50 (Cryptolestes ferrugineus [9]): 1.12 µg/mL (≈ 32.9 µM)
- LC50 (Cryptolestes ferrugineus [10]): 0.003 µg/mL (≈ 0.0882 µM)
- LC50 (Cryptolestes ferrugineus [11]): 1.42 µg/mL (≈ 41.8 µM)
- LC50 (Cryptolestes ferrugineus [12]): 0.004 µg/mL (≈ 0.118 µM)
- LC50 (Cryptolestes ferrugineus [13]): 0.056 µg/mL (≈ 1.65 µM)
- LC50 (Cryptolestes ferrugineus [14]): 1.31 µg/mL (≈ 38.5 µM)
- LC50 (Cryptolestes ferrugineus [15]): 1.5 µg/mL (≈ 44.1 µM)
- LC50 (Cryptolestes ferrugineus [16]): 0.005 µg/mL (≈ 0.147 µM)
- LC50 (Cryptolestes ferrugineus [17]): 0.97 µg/mL (≈ 28.5 µM)
- LC50 (Cryptolestes ferrugineus [18]): 1.3 µg/mL (≈ 38.2 µM)
- LC50 (Cryptolestes ferrugineus [19]): 6.37 µg/mL (≈ 187 µM)
